Laboratory results taken from patent US11452682B2, “Toothpaste composition for alleviating dentin hyperesthesia” (HYSENSBIO, priority 2018, dated 2022).

test system: DSPP gene; assay: mRNA level of DSPP gene in MDPC-23 cells by RT-PCR and real-time PCR; format: cell-based, mouse; conditions: cultured 48 hours with peptide, relative ratio to mRNA level in untreated control, Gapdh internal control, repeated three times
Procedure: The MDPC-23 cells cultured in Example 2-1 were treated with the peptides of each group synthesized in Example 1, then cultured for 48 hours. The mRNA level of the DSPP, an odontoblast differentiation marker gene, expressed in the MDPC-23 cells were measured, and the measured mRNA level of each DSPP gene was converted into a relative ratio to the mRNA level of the DSPP gene measured in control (Tables 13 to 24). In addition, the average value of the mRNA level of the DSPP gene measured according to the peptides of each group was compared (FIG. 1B). At this time, as a control, MDPC-23 cells that were not treated with the peptide promoting differentiation of odontoblast were used.
The expression level of the DSPP gene was measured through RT-PCR and real-time PCR analysis: Specifically, total RNA was extracted from the MDPC-23 cells using TRIzol reagent. 2 μg of the total RNA, 1 μl of reverse transcriptase, and 0.5 μg of oligo (oligo; dT) were used to synthesize cDNA. The synthesized cDNA was used in a real-time polymerase chain reaction. The real-time polymerase chain reaction was performed on an ABI PRISM 7500 sequence detection system (Applied Biosystems) and an SYBR GREEN PCR Master Mix (Takara, Japan). The real-time polymerase chain reaction was performed under conditions of 94° C., 1 min; 95° C., 15 sec; 60° C., 34 sec for 40 cycles. Results were analyzed by a comparative cycle threshold (CT) method. At this time, the Gapdh gene was used as the internal control group, and the measured value was repeated three times. The mean value and standard deviation value thereof were used.

In order of rising “mRNA level of Dspp gene Mean” value:
1. 68 (KYKQRRRNKY; Novel peptide) [compound 68]  1.432
2. 54 (KYRQKRKNYK; Novel peptide) [compound 54]  1.437
3. 45 (KYRQKKKSKY; Novel peptide) [compound 45]  1.532
4. 41 (KYRQRKKSKY; Novel peptide) [compound 41]  1.546
5. 12 (KYQRRRRSKY; Novel peptide) [compound 12]  1.548
6. 48 (KYRQKRRSKY; Novel peptide) [compound 48]  1.558
7. 42 (KYRQRKRSKY; Novel peptide) [compound 42]  1.586
8. 53 (KYRQKKKNYK; Novel peptide) [compound 53]  1.592
9. 37 (KYRQKKKNKY; Novel peptide) [compound 37]  1.597
10. 51 (KYRQRRKNYK; Novel peptide) [compound 51]  1.601
11. 66 (KYKQRKRNKY; Novel peptide) [compound 66]  1.627
12. 5 (KYQRKKKNKY; Novel peptide) [compound 5]  1.639
13. 8 (KYQRKRRNKY; Novel peptide) [compound 8]  1.639
14. 11 (KYQRRRKSKY; Novel peptide) [compound 11]  1.639
15. 2 (KYQRRKRNKY; Novel peptide) [compound 2]  1.646
16. 55 (KYRQKKRNYK; Novel peptide) [compound 55]  1.663
17. 43 (KYRQRRKSKY; Novel peptide) [compound 43]  1.669
18. 62 (KYRQKRKSYK; Novel peptide) [compound 62]  1.672
19. 13 (KYQRKKKSKY; Novel peptide) [compound 13]  1.685
20. 47 (KYRQKKRSKY; Novel peptide) [compound 47]  1.697
21. 56 (KYRQKRRNYK; Novel peptide) [compound 56]  1.701
22. 33 (KYRQRKKNKY; Novel peptide) [compound 33]  1.712
23. 39 (KYRQKKRNKY; Novel peptide) [compound 39]  1.712
24. 65 (KYKQRKKNKY; Novel peptide) [compound 65]  1.723
25. 77 (KYKQKKKSKY; Novel peptide) [compound 77]  1.729
26. 16 (KYQRKRRSKY; Novel peptide) [compound 16]  1.739
27. 6 (KYQRKRKNKY; Novel peptide) [compound 6]  1.746
28. 10 (KYQRRKRSKY; Novel peptide) [compound 10]  1.746
29. 1 (KYQRRKKNKY; Novel peptide) [compound 1]  1.754
30. 63 (KYRQKKRSYK; Novel peptide) [compound 63]  1.769
31. 67 (KYKQRRKNKY; Novel peptide) [compound 67]  1.777
32. 59 (KYRQRRKSYK; Novel peptide) [compound 59]  1.792
33. 44 (KYRQRRRSKY; Novel peptide) [compound 44]  1.793
34. 14 (KYQRKRKSKY; Novel peptide) [compound 14]  1.846
35. 9 (KYQRRKKSKY; Novel peptide) [compound 9]  1.854
36. 4 (KYQRRRRNKY; Novel peptide) [compound 4]  1.855
37. 7 (KYQRKKRNKY; Novel peptide) [compound 7]  1.864
38. 71 (KYKQKKRNKY; Novel peptide) [compound 71]  1.879
39. 29 (KYQRKKKSYK; Novel peptide) [compound 29]  1.883
40. 46 (KYRQKRKSKY; Novel peptide) [compound 46]  1.887
41. 50 (KYRQRKRNYK; Novel peptide) [compound 50]  1.887
42. 21 (KYQRKKKNYK; Novel peptide) [compound 21]  1.893
43. 49 (KYRQRKKNYK; Novel peptide) [compound 49]  1.923
44. 70 (KYKQKRKNKY; Novel peptide) [compound 70]  1.927
45. 19 (KYQRRRKNYK; Novel peptide) [compound 19]  1.931
46. 34 (KYRQRKRNKY; Novel peptide) [compound 34]  1.931
47. 15 (KYQRKKRSKY; Novel peptide) [compound 15]  1.964
48. 64 (KYRQKRRSYK; Novel peptide) [compound 64]  1.967
49. 35 (KYRQRRKNKY; Novel peptide) [compound 35]  1.983
50. 27 (KYQRRRKSYK; Novel peptide) [compound 27]  1.993
51. 75 (KYKQRRKSKY; Novel peptide) [compound 75]  1.997
52. 58 (KYRQRKRSYK; Novel peptide) [compound 58]  1.998
53. 69 (KYKQKKKNKY; Novel peptide) [compound 69]  2.011
54. 72 (KYKQKRRNKY; Novel peptide) [compound 72]  2.011
55. 74 (KYKQRKRSKY; Novel peptide) [compound 74]  2.011
56. 52 (KYRQRRRNYK; Novel peptide) [compound 52]  2.019
57. 73 (KYKQRKKSKY; Novel peptide) [compound 73]  2.035
58. 57 (KYRQRKKSYK; Novel peptide) [compound 57]  2.039
59. 60 (KYRQRRRSYK; Novel peptide) [compound 60]  2.107
60. 38 (KYRQKRKNKY; Novel peptide) [compound 38]  2.116
61. 17 (KYQRRKKNYK; Novel peptide) [compound 17]  2.117
62. 23 (KYQRKKRNYK; Novel peptide) [compound 23]  2.171
63. 26 (KYQRRKRSYK; Novel peptide) [compound 26]  2.193
64. 24 (KYQRKRRNYK; Novel peptide) [compound 24]  2.212
65. 32 (KYQRKRRSYK; Novel peptide) [compound 32]  2.219
66. 40 (KYRQKRRNKY; Novel peptide) [compound 40]  2.219
67. 79 (KYKQKKRSKY; Novel peptide) [compound 79]  2.231
68. 61 (KYRQKKKSYK; Novel peptide) [compound 61]  2.301
69. 18 (KYQRRKRNYK; Novel peptide) [compound 18]  2.319
70. 36 (KYRQRRRNKY; Novel peptide) [compound 36]  2.319
71. 76 (KYKQRRRSKY; Novel peptide) [compound 76]  2.351
72. 25 (KYQRRKKSYK; Novel peptide) [compound 25]  2.371
73. 31 (KYQRKKRSYK; Novel peptide) [compound 31]  2.371
74. 22 (KYQRKRKNYK; Novel peptide) [compound 22]  2.412
75. 28 (KYQRRRRSYK; Novel peptide) [compound 28]  2.453
76. 30 (KYQRKRKSYK; Novel peptide) [compound 30]  2.512
77. 20 (KYQRRRRNYK; Novel peptide) [compound 20]  2.553
78. 78 (KYKQKRKSKY; Novel peptide) [compound 78]  2.635
